Assays:
Cdk7/cyclin H/MAT1 = molecular target: T1, Cdk7/cyclin H/MAT1 (Homo sapiens, UniProt P50613); test: In vitro kinase assay of Cdk7, RNA Pol II-CTD-GST substrate; format: biochemical; settings: 0 nM = 100
T1 construct: purchased Upstate
Experimental: (§1) To kinase assay buffer were added RNA Pol II-CTD-GST protein (Jena Bioscience, Germany) as a substrate, Cdk9/cyclin T1 or Cdk7/cyclin H/MAT1 recombinant protein (Upstate) as an enzyme, 2.5 μCi [γ-32P]ATP, and 100 μM MgAc/ATP. The total reaction volume was adjusted to 50 μl. Kinase assay reaction was induced at 30° C. for 20 minutes. Upon completion of the reaction, electrophoresis was performed on 8% SDS-polyacrylamide gel. The activities of Cdk7 and Cdk9 over the concentrations of the compounds of Example 1 and Example 2 were confirmed by autoradiography and the results are shown in FIG. 5˜FIG. 8 and Table 3.
(§2) The intensity of bands was analyzed by densitometry (GS-800, Bio-Rad).

Cdk9/cyclin T1 = molecular target: T2, Cdk9/cyclin T1 (Homo sapiens, UniProt P50750); test: In vitro kinase assay of Cdk9, RNA Pol II-CTD-GST substrate; format: biochemical; settings: 0 nM = 100
T2 construct: purchased Upstate
T2 sequence (P50750 whole entry): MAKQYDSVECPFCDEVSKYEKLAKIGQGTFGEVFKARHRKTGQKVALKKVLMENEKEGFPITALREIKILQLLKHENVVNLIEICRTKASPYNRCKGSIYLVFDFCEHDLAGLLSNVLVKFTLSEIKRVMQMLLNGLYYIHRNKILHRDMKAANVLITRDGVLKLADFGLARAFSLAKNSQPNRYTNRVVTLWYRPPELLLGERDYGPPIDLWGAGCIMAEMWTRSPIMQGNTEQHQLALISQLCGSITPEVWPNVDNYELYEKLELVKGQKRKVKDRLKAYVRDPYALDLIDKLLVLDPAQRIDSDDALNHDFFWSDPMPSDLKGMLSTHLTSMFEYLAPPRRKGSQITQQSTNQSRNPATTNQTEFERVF
T2 sequence (O60563 whole entry partner): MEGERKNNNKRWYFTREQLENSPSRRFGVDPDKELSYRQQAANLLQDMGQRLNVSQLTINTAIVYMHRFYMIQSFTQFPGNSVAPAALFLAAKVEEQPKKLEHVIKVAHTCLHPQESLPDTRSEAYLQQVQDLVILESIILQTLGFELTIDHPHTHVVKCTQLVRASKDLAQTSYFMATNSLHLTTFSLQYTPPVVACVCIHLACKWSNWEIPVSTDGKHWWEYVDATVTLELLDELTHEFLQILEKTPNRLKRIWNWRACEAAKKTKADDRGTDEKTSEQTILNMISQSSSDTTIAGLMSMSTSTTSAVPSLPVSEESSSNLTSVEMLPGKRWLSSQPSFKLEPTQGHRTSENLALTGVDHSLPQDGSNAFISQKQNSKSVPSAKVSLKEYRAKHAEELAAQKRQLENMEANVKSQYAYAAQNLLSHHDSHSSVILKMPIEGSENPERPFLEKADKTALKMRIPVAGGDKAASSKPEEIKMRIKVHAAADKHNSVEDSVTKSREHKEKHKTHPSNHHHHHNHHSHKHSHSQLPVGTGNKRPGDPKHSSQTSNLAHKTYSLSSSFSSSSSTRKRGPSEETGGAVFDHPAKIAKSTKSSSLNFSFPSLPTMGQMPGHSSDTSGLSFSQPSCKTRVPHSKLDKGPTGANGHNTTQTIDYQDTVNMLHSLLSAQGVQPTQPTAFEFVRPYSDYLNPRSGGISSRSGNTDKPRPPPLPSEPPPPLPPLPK
Experimental: as §1, §2

Cdk7 = test: Western blotting of Cdk7 activity (phospho RNA Pol II Ser 5); format: cell-based, human; settings: 0 nM = 100
Experimental: (§3) After treating the compound of Example 2 to SNU-354 cells, cell pellet was lysed with lysis buffer (0.5% triton X-100, 20 mM Tris-HCl (pH 7.5), 2 mM magnesium chloride, 1 mM DTT, 1 mM EGTA, 50 mM β-glycerophosphate, 25 mM sodium fluoride, 1 mM Na3VO4, 2 μg/mL leupeptin, 2 μg/mL pepstatin A, 100 μg/mL phenylmethylsulfonyl fluoride, and 1 μg/mL antipain) at 4° C. for 1 hour, followed by quantification of protein. A proper amount of protein was electrophoresed on SDS-PAGE gel and then transferred onto polyvinylidene difluoride membrane (Millipore Co., Bedford, Mass.). The membrane was reacted in inhibiting solution (PBS, 5% skim milk, 0.1% tween-20) at room temperature for 1˜2 hours. The membrane was reacted with the primary antibody (goat anti-phospho-Rb, rabbit anti-nucleolin) diluted in the inhibiting solution (1:1000). Then, the membrane was washed with PBST, followed by reaction with the proper secondary antibody (horseradish peroxidase (HRP) conjugated) at room temperature for 1 hour.
Experiment was performed by the same manner as described in step 2 of Experimental Example 1 except that rabbit anti-phospho RNA Pol II (Ser 5) and rabbit anti-phospho RNA Pol II (Ser 2) (from Bethyl, TX, USA) were used as primary antibodies. The results are shown FIG. 9˜FIG. 12, and Table 4 and Table 5.

SNU-354 cells [1] = test: MTT assay, cell viability; format: cell-based; settings: Homo sapiens, SNU-354, read-out: Cell viability (%)
Experimental: Cell viability was measured by MTT assay. SNU-354 cells in the log phase of cell growth curve were distributed in a 24-well plate at the density of 2×10^4 cells/well. […] After allowing enough time for reaction, MTT reagent (MTT dissolved in PBS at the concentration of 5 mg/mL) (Sigma-Aldrich, USA) was added to each well, followed by reaction at 37° C. for 3 hours. Then, the supernatant was eliminated and the precipitated formazan crystals were dissolved in dimethyl sulfoxide, followed by measurement of absorbance with ELISA plate reader.

SNU-354 cells [2] = test: 3H-thymidine incorporation assay; format: cell-based, human; settings: 18˜24 hours
Experimental: SNU-354 cells were distributed in a 6-well plate at the density of 5×10^4 cells/well, followed by culture in FBS-free medium for 24 hours. 24 hours later, the medium was replaced with the fresh one supplemented with FBS, the compounds of Examples 1 and 2 at different concentrations and 1 μCi/mL [^3H]dT (GE Healthcare, UK). 18˜24 hours later, the cells were washed with cold PBS and then fixed with cold 5% trichloroacetic acid. DNA was lysed in […] sodium hydroxide at 37° C. for 1 hour. Then, [^3H]dT incorporated during intracellular DNA synthesis was measured by LSC (liquid scintillation counting). Intracellular DNA synthesis measured above was used as index for the evaluation of cell viability.

SNU-354 cells [3] = test: Western blotting of PARP cleavage; format: cell-based, human; settings: FIG. 17
Experimental: as §3
Experiment was performed by the same manner as described in step 2 of Experimental Example 2 except that rabbit anti-PARP was used as the primary antibody and the results are shown in FIG. 17.

[4] = tested on: caspase-3 activity in SNU-354 cells; test: Measurement of caspase-3 activity (Experimental Example 1-6-2); format: cell-based, human
Experimental: SNU-354 cells treated with the compounds of Examples 1 and 2 were lysed with lysis buffer (0.5% triton X-100, 20 mM Tris-HCl (pH 7.5), 2 mM magnesium chloride, 1 mM DTT, 1 mM EGTA, 50 mM β-glycerophosphate, 25 mM sodium fluoride, 1 mM Na3VO4, 2 μg/mL leupeptin, 2 μg/mL pepstatin A, 100 μg/mL phenylmethylsulfonyl fluoride, 1 μg/mL antipain). The protease analysis buffer necessary for the reaction (20 mM HEPES (pH 7.5), 10% glycerol, 2 mM DTT) was mixed with 20 μM Ac-DEVD-AMC (BD Biosciences, CA, USA) and cell lysates, followed by reaction at 37° C. for 1 hour. Upon completion of the reaction, caspase-3 activity was measured at 380 nm of excitation and 460 nm of emission with spectrofluorometer (TECAN, Switzerland) and the results are shown in FIG. 18 and Table 8.

T1 sequence (P50613 whole entry): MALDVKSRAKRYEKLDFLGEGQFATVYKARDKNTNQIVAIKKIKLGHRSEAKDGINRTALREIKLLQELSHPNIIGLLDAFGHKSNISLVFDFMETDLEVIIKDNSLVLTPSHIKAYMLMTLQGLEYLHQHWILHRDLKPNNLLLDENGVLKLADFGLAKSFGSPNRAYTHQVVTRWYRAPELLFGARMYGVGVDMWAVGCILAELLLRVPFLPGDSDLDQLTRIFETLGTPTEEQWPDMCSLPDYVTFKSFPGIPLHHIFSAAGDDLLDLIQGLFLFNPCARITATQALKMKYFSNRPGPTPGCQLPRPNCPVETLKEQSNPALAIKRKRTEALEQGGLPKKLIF
T1 sequence (P51946 whole entry partner): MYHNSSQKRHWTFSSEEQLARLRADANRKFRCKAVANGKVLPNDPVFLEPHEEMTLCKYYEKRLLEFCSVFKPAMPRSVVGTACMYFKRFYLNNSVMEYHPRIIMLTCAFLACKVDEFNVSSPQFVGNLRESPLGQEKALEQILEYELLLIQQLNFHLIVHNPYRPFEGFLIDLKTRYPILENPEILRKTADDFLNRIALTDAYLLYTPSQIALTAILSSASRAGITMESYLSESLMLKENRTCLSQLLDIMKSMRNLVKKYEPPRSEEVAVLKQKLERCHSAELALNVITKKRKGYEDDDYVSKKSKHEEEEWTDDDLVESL
T1 sequence (P51948 whole entry partner): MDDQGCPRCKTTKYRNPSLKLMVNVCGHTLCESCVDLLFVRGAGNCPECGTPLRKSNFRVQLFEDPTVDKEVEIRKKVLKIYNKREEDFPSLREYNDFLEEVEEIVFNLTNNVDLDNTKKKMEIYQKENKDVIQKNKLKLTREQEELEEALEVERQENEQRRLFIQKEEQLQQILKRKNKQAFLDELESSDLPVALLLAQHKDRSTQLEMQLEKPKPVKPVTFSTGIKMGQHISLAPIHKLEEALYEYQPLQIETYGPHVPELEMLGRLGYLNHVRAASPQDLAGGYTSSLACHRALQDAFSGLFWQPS

Compound | Cdk7 activity (Cdk7/cyclin H/MAT1; 10 nM) [%] | Cdk7 activity (Cdk7/cyclin H/MAT1; 100 nM) [%] | Cdk7 activity (Cdk7/cyclin H/MAT1; 1000 nM) [%] | Cdk9 activity (Cdk9/cyclin T1; 10 nM) [%] | Cdk9 activity (Cdk9/cyclin T1; 100 nM) [%] | Cdk9 activity (Cdk9/cyclin T1; 1000 nM) [%] | Cdk7 activity (Cdk7; 0.1 nM) [%] | Cdk7 activity (Cdk7; 0.5 nM) [%] | Cdk7 activity (Cdk7; 1 nM) [%] | Cdk7 activity (Cdk7; 5 nM) [%] | Cdk7 activity (Cdk7; 10 nM) [%] | Cdk7 activity (Cdk7; 50 nM) [%] | viability at 0.5 µM (SNU-354 cells [1]) [%] | viability at 1 µM (SNU-354 cells [1]) [%] | viability at 2 µM (SNU-354 cells [1]) [%] | viability at 5 µM (SNU-354 cells [1]) [%] | viability at 10 µM (SNU-354 cells [1]) [%] | viability at 50 µM (SNU-354 cells [1]) [%] | ^3H-thymidine incorporation (%) (SNU-354 cells [2]; 5.0 μM) | ^3H-thymidine incorporation (%) (SNU-354 cells [2]; 10.0 μM) | further results
NC(=O)c1c(Br)nc2n([C@H]3O[C@@H](CO)[C@H](O)[C@H]3O)cnc(N)c1-2 [Example 1, 4-amino-6-bromo-1-((2S,3R,4R,5S)-3,4-dihydroxy-5-(hydroxymethyl)-tetrahydrofuran-2-yl)-1H-pyrrolo[2,3-d]pyrimidine-5-carboxamide] | 41.8 | 10.8 | 5.8 | 15.8 | 1.0 | 0.1 | 90.1 | 76.3 | 37.6 | 3.0 | 1.7 | 0.3 | 96.4 | 84.3 | 74 | 68 | 55.6 | 36.6 | 84.0 | 35.2 | ^3H-thymidine incorporation (%) (SNU-354 cells [2]; 50.0 μM): 15.8%; PARP cleavage, time from the treatment after which it was caused (SNU-354 cells [3]): 12 h; caspase-3 activity relative to the control ([4]; 1.0 uM and up): three times as high as that of the control
CC(C)C(=O)OC[C@@H]1O[C@H](n2cnc(N)c3c(C(N)=O)c(Br)nc2-3)[C@H](O)[C@H]1O [Example 2, ((2S,3R,4R,5S)-5-(4-amino-6-bromo-5-carbamoyl-1H-pyrrolo[2,3-d]pyrimidin-1-yl)-3,4-dihydroxy-tetrahydrofuran-2-yl)methyl isobutyrate] | 92.2 | 91.1 | 6.5 | 95.4 | 40.5 | 3.3 | 88.4 | 44.0 | 12.7 | 3.3 | 1.6 | 0.6 | 86.3 | 75.5 | 64.7 | 47.6 | 35.4 | 16.8 | 50.7 | 20.4 | ^3H-thymidine incorporation (%) (SNU-354 cells [2]; 50.0 μM): 8%; PARP cleavage, time from the treatment after which it was caused (SNU-354 cells [3]): 6 h; caspase-3 activity relative to the control ([4]; 0.5 uM and up): 7 times

From patent US9062088B2, “CDK-inhibiting pyrrolopyrimidine carboxamide derivative or pharmaceutically acceptable salt thereof, and pharmaceutical composition containing the same as active ingredient for preventing or treating hepatocellular carcinoma” (SNU R&DB Foundation, priority 2010, dated 2015)
